Reference: ChEMBL document CHEMBL1201862, “PubChem BioAssay data set” (2004)
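How tested: cells in 96-well plates exposed to compound for 48 hours at five concentrations. Abbreviation: GI50, concentration required for 50% inhibition of growth.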 Active and inactive are the calls of the source. Rule as the data show it: active = GI50 up to about 1.1 µM and inactive = higher.

What was measured:
Assay in all cases: NCI tumour cell line growth inhibition, 48 h
SN12C = test system: SN12C
DMS-114 = test system: DMS-114
UACC-257 = test system: UACC-257
HCC 2998 = test system: HCC 2998
HCT-116 = test system: HCT-116
ACHN = test system: ACHN
786-0 = test system: 786-0
M19-MEL = test system: M19-MEL
TK-10 = test system: TK-10
K562 = test system: K562
M14 = test system: M14
RXF 393 = test system: RXF 393
U-251 = test system: U-251
UACC-62 = test system: UACC-62
HT-29 = test system: HT-29
Malme-3M = test system: Malme-3M
NCI-H522 = test system: NCI-H522
UO-31 = test system: UO-31
A549 = test system: A549
RPMI-8226 = test system: RPMI-8226
SK-MEL-2 = test system: SK-MEL-2
DMS-273 = test system: DMS-273
SK-OV-3 = test system: SK-OV-3
SNB-78 = test system: SNB-78
SNB-19 = test system: SNB-19
OVCAR-5 = test system: OVCAR-5
DLD-1 = test system: DLD-1
SR = test system: SR
KM12 = test system: KM12
XF498 = test system: XF498
IGROV-1 = test system: IGROV-1
HCT-15 = test system: HCT-15
SW-620 = test system: SW-620
HOP-18 = test system: HOP-18
OVCAR-4 = test system: OVCAR-4
SF-268 = test system: SF-268
SK-MEL-28 = test system: SK-MEL-28
NCI-H23 = test system: NCI-H23
NCI-H226 = test system: NCI-H226
OVCAR-3 = test system: OVCAR-3
NCI-H460 = test system: NCI-H460
SNB-75 = test system: SNB-75
HOP-62 = test system: HOP-62
RXF 631 = test system: RXF 631
SF-539 = test system: SF-539
EKVX = test system: EKVX
CCRF-CEM = test system: CCRF-CEM
SF-295 = test system: SF-295
HL-60 = test system: HL-60
COLO 205 = test system: COLO 205
LOX IMVI = test system: LOX IMVI
CAKI-1 = test system: CAKI-1
HOP-92 = test system: HOP-92
SK-MEL-5 = test system: SK-MEL-5
OVCAR-8 = test system: OVCAR-8
LXFL 529 = test system: LXFL 529
MOLT-4 = test system: MOLT-4

`CCCCCCCCCCCc1cc(=O)c2c(O)cccc2o1` was tested, and the GI50 (SN12C) was > 100 µM (inactive), the GI50 (DMS-114) was 38.7 µM (inactive) and the GI50 (UACC-257) was 36 µM (inactive). The GI50 (HCC 2998) was 66.2 µM (inactive), the GI50 (HCT-116) was 41.9 µM (inactive) and the GI50 (ACHN) was > 100 µM (inactive). For the same compound, the GI50 (786-0) was > 100 µM (inactive), the GI50 (M19-MEL) was 43.8 µM (inactive) and the GI50 (TK-10) was > 100 µM (inactive). The GI50 (K562) was 43.7 µM (inactive), the GI50 (M14) was 64 µM (inactive) and the GI50 (RXF 393) was 70.6 µM (inactive). The GI50 (U-251) was 95.7 µM (inactive), the GI50 (UACC-62) was > 100 µM (inactive) and the GI50 (HT-29) was 53.7 µM (inactive). The GI50 (Malme-3M) was > 100 µM (inactive), the GI50 (NCI-H522) was 71.1 µM (inactive) and the GI50 (UO-31) was > 100 µM (inactive). For the same compound, the GI50 (A549) was 61.8 µM (inactive), the GI50 (RPMI-8226) was 30.6 µM (inactive) and the GI50 (SK-MEL-2) was 24.1 µM (inactive). The GI50 (DMS-273) was 56.6 µM (inactive), the GI50 (SK-OV-3) was > 100 µM (inactive) and the GI50 (SNB-78) was > 100 µM (inactive). For the same compound, the GI50 (SNB-19) was > 100 µM (inactive), the GI50 (OVCAR-5) was 88.7 µM (inactive) and the GI50 (DLD-1) was > 100 µM (inactive). The GI50 (SR) was 26.1 µM (inactive), the GI50 (KM12) was 54.2 µM (inactive) and the GI50 (XF498) was 42.8 µM (inactive). The GI50 (IGROV-1) was > 100 µM (inactive), the GI50 (HCT-15) was 54.8 µM and the GI50 (SW-620) was > 100 µM (inactive). The GI50 (HOP-18) was > 100 µM (inactive), the GI50 (OVCAR-4) was > 100 µM (inactive) and the GI50 (SF-268) was > 100 µM (inactive). For the same compound, the GI50 (SK-MEL-28) was 94.6 µM (inactive), the GI50 (NCI-H23) was > 100 µM (inactive) and the GI50 (NCI-H226) was 37.8 µM (inactive). The GI50 (OVCAR-3) was > 100 µM (inactive), the GI50 (NCI-H460) was 79.1 µM (inactive) and the GI50 (SNB-75) was > 100 µM (inactive). For the same compound, the GI50 (HOP-62) was > 100 µM (inactive), the GI50 (RXF 631) was > 100 µM (inactive) and the GI50 (SF-539) was > 100 µM (inactive). For the same compound, the GI50 (EKVX) was 56.1 µM (inactive), the GI50 (CCRF-CEM) was 20.3 µM (inactive) and the GI50 (SF-295) was 87.5 µM (inactive). For the same compound, the GI50 (HL-60) was 30.5 µM (inactive), the GI50 (COLO 205) was > 100 µM (inactive) and the GI50 (LOX IMVI) was 37.5 µM (inactive). The GI50 (CAKI-1) was > 100 µM (inactive), the GI50 (HOP-92) was > 100 µM (inactive) and the GI50 (SK-MEL-5) was 44.8 µM (inactive). For the same compound, the GI50 (OVCAR-8) was > 100 µM (inactive), the GI50 (LXFL 529) was 55.1 µM (inactive) and the GI50 (MOLT-4) was 30.3 µM (inactive).
